Test results reported in PMC8371461 (Frontiers in Pharmacology, 2021).

How the values were obtained:
[1] = molecular target: T1, ERK1 (Homo sapiens, UniProt P27361); assay: kinome scan; type: binding; settings: 10 µM
T1 construct: purchased DiscoverX (KINOMEscan)

[2] = system: Mitochondrial membrane potential; design: method as in CHEMBL1614240; settings: reported activity, data mining; ref CHEMBL1614240; cited from earlier work
[3] = molecular target: T2, CDK4-cyclinD3 (Homo sapiens, UniProt P11802); assay: kinome scan; type: binding; settings: 10 µM
T2 construct: purchased DiscoverX (KINOMEscan)

[4] = molecular target: T3, EPHA2 (Homo sapiens, UniProt P29317); assay: kinome scan; type: binding; settings: 10 µM
T3 construct: purchased DiscoverX (KINOMEscan)

[5] = molecular target: T4, ERK2 (Homo sapiens, UniProt P28482); assay: kinome scan; type: binding; settings: 10 µM
T4 construct: purchased DiscoverX (KINOMEscan)

[6] = molecular target: T5, RPS6KA4(Kin.Dom.1-N-terminal) (Homo sapiens, UniProt O75676); assay: kinome scan; type: binding; settings: 10 µM
T5 construct: RPS6KA4(Kin.Dom.1-N-terminal); purchased DiscoverX (KINOMEscan)

[7] = molecular target: T6, VEGFR2 (Homo sapiens, UniProt P35968); assay: kinome scan; type: binding; settings: 10 µM
T6 construct: purchased DiscoverX (KINOMEscan)

[8] = molecular target: T7, ERK4 (Homo sapiens, UniProt P31152); assay: kinome scan; type: binding; settings: 10 µM
T7 construct: purchased DiscoverX (KINOMEscan)

[9] = molecular target: T8, CHEK1 (Homo sapiens, UniProt O14757); assay: kinome scan; type: binding
T8 construct: purchased DiscoverX (KINOMEscan)

[10] = molecular target: T9, PIP5K1C (Homo sapiens, UniProt O60331); assay: kinome scan; type: binding; settings: 10 µM
T9 construct: purchased DiscoverX (KINOMEscan)

[11] = molecular target: T10, BMPR2 (Homo sapiens, UniProt Q13873); assay: kinome scan; type: binding; settings: 10 µM
T10 construct: purchased DiscoverX (KINOMEscan)

[12] = molecular target: T11, TRPM6 (Homo sapiens, UniProt Q9BX84); assay: kinome scan; type: binding; settings: 10 µM
T11 construct: purchased DiscoverX (KINOMEscan)

[13] = molecular target: T12, PRKD2 (Homo sapiens, UniProt Q9BZL6); assay: kinome scan; type: binding; settings: 10 µM
T12 construct: purchased DiscoverX (KINOMEscan)

[14] = molecular target: T13, PHKG1 (Homo sapiens, UniProt Q16816); assay: kinome scan; type: binding; settings: 10 µM
T13 construct: purchased DiscoverX (KINOMEscan)

[15] = molecular target: T14, NEK2 (Homo sapiens, UniProt P51955); assay: kinome scan; type: binding; settings: 10 µM
T14 construct: purchased DiscoverX (KINOMEscan)

[16] = molecular target: T15, AURKB (Homo sapiens, UniProt Q96GD4); assay: kinome scan; type: binding; settings: 10 µM
T15 construct: purchased DiscoverX (KINOMEscan)

[17] = molecular target: T16, CSK (Homo sapiens, UniProt P41240); assay: kinome scan; type: binding; settings: 10 µM
T16 construct: purchased DiscoverX (KINOMEscan)

[18] = molecular target: T17, MAPKAPK5 (Homo sapiens, UniProt Q8IW41); assay: kinome scan; type: binding; settings: 10 µM
T17 construct: purchased DiscoverX (KINOMEscan)

[19] = molecular target: T18, TAOK3 (Homo sapiens, UniProt Q9H2K8); assay: kinome scan; type: binding; settings: 10 µM
T18 construct: purchased DiscoverX (KINOMEscan)

[20] = molecular target: T19, ERK3 (Homo sapiens, UniProt Q16659); assay: kinome scan; type: binding; settings: 10 µM
T19 construct: purchased DiscoverX (KINOMEscan)

[21] = molecular target: T20, MRCKB (Homo sapiens, UniProt Q9Y5S2); assay: kinome scan; type: binding; settings: 10 µM
T20 construct: purchased DiscoverX (KINOMEscan)

[22] = molecular target: T21, AMPK-alpha2 (Homo sapiens, UniProt P54646); assay: kinome scan; type: binding; settings: 10 µM
T21 construct: purchased DiscoverX (KINOMEscan)

[23] = molecular target: T22, LIMK2 (Homo sapiens, UniProt P53671); assay: kinome scan; type: binding; settings: 10 µM
T22 construct: purchased DiscoverX (KINOMEscan)

[24] = molecular target: T23, EGFR(G719S) (Homo sapiens, UniProt P00533, G719S); assay: kinome scan; type: binding; settings: 10 µM
T23 construct: purchased DiscoverX (KINOMEscan)

[25] = molecular target: T24, TTK (Homo sapiens, UniProt P33981); assay: kinome scan; type: binding; settings: 10 µM
T24 construct: purchased DiscoverX (KINOMEscan)

[26] = molecular target: T25, EGFR(T790M) (Homo sapiens, UniProt P00533, T790M); assay: kinome scan; type: binding; settings: 10 µM
T25 construct: purchased DiscoverX (KINOMEscan)

[27] = molecular target: T26, JNK2 (Homo sapiens, UniProt P45984); assay: kinome scan; type: binding; settings: 10 µM
T26 construct: purchased DiscoverX (KINOMEscan)

[28] = molecular target: T27, PAK7 (Homo sapiens, UniProt Q9P286); assay: kinome scan; type: binding; settings: 10 µM
T27 construct: purchased DiscoverX (KINOMEscan)

[29] = molecular target: T28, EPHB1 (Homo sapiens, UniProt P54762); assay: kinome scan; type: binding; settings: 10 µM
T28 construct: purchased DiscoverX (KINOMEscan)

[30] = molecular target: T29, KIT(V559D) (Homo sapiens, UniProt P10721, V559D); assay: kinome scan; type: binding
T29 construct: purchased DiscoverX (KINOMEscan)

[31] = molecular target: T30, RSK4(Kin.Dom.2-C-terminal) (Homo sapiens, UniProt Q9UK32); assay: kinome scan; type: binding; settings: 10 µM
T30 construct: RSK4(Kin.Dom.2-C-terminal); purchased DiscoverX (KINOMEscan)

[32] = molecular target: T31, FLT1 (Homo sapiens, UniProt P17948); assay: kinome scan; type: binding; settings: 10 µM
T31 construct: purchased DiscoverX (KINOMEscan)

[33] = molecular target: T32, YANK3 (Homo sapiens, UniProt Q86UX6); assay: kinome scan; type: binding; settings: 10 µM
T32 construct: purchased DiscoverX (KINOMEscan)

[34] = molecular target: T33, RAF1 (Homo sapiens, UniProt P04049); assay: kinome scan; type: binding; settings: 10 µM
T33 construct: purchased DiscoverX (KINOMEscan)

[35] = molecular target: T34, ABL1(E255K)-phosphorylated (Homo sapiens, UniProt P00519, E255K); assay: kinome scan; type: binding; settings: 10 µM
T34 construct: purchased DiscoverX (KINOMEscan)

[36] = molecular target: T35, DAPK2 (Homo sapiens, UniProt Q9UIK4); assay: kinome scan; type: binding; settings: 10 µM
T35 construct: purchased DiscoverX (KINOMEscan)

[37] = molecular target: T36, RSK1(Kin.Dom.1-N-terminal) (Homo sapiens, UniProt Q15418); assay: kinome scan; type: binding; settings: 10 µM
T36 construct: RSK1(Kin.Dom.1-N-terminal); purchased DiscoverX (KINOMEscan)

[38] = molecular target: T37, MELK (Homo sapiens, UniProt Q14680); assay: kinome scan; type: binding; settings: 10 µM
T37 construct: purchased DiscoverX (KINOMEscan)

[39] = molecular target: T38, ABL1(Q252H)-phosphorylated (Homo sapiens, UniProt P00519, Q252H); assay: kinome scan; type: binding; settings: 10 µM
T38 construct: purchased DiscoverX (KINOMEscan)

[40] = molecular target: T39, MAP4K4 (Homo sapiens, UniProt O95819); assay: kinome scan; type: binding; settings: 10 µM
T39 construct: purchased DiscoverX (KINOMEscan)

T8 sequence (O14757 whole entry): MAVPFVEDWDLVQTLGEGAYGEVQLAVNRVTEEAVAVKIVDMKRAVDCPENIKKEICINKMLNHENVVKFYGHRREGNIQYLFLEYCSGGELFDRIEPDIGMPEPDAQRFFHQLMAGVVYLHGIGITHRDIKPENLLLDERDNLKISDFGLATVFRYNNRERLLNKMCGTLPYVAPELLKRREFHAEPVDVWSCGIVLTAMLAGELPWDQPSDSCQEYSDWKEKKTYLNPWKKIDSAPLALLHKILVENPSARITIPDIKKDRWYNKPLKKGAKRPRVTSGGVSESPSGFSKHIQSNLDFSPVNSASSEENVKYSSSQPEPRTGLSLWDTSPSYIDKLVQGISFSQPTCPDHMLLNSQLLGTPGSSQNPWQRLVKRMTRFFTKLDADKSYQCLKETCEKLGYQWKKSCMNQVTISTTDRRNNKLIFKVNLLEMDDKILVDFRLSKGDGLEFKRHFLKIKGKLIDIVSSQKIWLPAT
T29 sequence (P10721 26-976 V559D): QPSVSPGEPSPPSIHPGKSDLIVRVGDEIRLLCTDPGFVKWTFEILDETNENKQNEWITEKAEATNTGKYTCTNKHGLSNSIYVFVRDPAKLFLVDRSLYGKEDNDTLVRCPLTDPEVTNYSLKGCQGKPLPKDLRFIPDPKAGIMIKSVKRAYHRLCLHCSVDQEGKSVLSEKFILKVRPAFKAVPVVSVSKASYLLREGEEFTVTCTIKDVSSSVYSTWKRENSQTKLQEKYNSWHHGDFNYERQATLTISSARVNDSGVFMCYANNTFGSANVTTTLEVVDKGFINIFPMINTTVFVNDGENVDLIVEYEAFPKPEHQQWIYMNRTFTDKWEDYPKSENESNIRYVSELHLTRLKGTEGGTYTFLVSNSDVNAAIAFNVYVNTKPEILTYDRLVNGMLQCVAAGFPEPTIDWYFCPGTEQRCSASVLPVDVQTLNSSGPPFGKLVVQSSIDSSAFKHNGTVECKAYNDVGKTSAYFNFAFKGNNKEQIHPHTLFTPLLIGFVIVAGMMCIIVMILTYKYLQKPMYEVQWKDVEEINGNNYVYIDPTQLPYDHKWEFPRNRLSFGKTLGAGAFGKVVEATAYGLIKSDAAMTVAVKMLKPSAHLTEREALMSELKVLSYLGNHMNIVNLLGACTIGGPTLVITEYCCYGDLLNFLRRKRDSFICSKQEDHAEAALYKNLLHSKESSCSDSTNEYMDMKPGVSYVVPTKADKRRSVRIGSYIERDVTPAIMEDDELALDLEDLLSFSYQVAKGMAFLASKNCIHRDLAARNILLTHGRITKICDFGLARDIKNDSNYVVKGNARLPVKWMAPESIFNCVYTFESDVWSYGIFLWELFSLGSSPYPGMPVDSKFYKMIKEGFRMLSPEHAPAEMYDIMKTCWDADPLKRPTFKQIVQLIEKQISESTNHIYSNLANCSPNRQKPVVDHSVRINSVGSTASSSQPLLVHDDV
T35 sequence (Q9UIK4 whole entry): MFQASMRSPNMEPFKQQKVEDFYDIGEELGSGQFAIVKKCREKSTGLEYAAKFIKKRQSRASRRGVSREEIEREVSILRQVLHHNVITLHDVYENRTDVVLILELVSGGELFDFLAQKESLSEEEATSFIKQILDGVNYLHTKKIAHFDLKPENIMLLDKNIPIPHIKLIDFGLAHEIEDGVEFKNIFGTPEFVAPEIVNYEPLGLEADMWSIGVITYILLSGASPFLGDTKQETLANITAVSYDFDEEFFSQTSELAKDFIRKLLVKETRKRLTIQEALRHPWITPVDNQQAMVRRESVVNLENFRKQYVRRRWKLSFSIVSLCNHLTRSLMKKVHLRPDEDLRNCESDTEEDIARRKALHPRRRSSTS
T17 sequence (Q8IW41 whole entry): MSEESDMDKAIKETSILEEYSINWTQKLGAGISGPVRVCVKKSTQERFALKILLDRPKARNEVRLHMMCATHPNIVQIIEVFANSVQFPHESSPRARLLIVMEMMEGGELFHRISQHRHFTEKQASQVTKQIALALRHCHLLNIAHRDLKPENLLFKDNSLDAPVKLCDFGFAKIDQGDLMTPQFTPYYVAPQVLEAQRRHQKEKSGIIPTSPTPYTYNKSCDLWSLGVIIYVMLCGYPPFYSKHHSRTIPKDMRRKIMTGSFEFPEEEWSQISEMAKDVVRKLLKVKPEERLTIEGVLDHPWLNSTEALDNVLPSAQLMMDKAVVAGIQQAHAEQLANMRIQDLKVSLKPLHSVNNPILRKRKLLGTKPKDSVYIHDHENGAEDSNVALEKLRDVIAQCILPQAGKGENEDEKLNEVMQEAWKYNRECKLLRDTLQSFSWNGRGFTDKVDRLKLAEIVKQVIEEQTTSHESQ
T16 sequence (P41240 whole entry): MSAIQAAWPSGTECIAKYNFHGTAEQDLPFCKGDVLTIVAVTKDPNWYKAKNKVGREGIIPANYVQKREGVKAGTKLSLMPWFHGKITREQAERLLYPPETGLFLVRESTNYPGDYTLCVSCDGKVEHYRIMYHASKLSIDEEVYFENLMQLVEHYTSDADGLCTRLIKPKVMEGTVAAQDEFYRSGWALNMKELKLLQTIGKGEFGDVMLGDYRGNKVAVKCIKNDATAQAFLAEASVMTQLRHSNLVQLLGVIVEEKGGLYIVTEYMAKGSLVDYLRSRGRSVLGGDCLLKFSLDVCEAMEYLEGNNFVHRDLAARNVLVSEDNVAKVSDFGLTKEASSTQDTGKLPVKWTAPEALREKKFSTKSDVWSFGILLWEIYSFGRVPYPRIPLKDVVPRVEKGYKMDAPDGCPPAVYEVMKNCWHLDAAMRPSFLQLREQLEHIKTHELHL
T23 sequence (P00533 25-1210 G719S): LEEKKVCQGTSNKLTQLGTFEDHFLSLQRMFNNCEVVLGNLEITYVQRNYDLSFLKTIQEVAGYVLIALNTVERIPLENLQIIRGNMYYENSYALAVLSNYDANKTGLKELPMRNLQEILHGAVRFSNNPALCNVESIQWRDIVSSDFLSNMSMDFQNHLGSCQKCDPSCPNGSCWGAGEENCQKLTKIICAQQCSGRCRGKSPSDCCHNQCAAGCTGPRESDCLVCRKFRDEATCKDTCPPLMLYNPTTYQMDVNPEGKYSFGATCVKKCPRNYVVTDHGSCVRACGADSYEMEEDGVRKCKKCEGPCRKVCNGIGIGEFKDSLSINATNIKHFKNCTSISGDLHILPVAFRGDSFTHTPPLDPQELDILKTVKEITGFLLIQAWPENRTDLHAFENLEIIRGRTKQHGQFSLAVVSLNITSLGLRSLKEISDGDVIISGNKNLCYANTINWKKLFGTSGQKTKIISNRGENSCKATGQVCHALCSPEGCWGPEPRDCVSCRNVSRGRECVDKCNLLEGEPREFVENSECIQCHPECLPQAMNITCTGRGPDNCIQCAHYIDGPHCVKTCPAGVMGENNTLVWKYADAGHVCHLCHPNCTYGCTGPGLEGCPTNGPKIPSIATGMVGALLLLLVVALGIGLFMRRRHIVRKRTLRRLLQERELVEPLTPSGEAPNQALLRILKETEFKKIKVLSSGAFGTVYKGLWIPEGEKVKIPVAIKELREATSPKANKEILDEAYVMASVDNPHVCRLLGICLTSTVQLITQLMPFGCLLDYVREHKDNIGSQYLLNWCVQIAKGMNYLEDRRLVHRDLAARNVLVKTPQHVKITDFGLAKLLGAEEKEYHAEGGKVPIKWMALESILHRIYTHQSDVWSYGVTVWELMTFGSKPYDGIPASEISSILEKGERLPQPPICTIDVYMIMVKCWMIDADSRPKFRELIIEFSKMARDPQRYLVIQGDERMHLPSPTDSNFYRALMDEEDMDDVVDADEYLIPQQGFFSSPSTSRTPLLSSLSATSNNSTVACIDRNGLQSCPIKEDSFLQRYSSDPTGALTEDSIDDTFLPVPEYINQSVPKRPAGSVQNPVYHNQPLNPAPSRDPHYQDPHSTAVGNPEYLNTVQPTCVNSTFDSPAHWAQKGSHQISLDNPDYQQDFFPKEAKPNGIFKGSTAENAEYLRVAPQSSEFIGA
T22 sequence (P53671 whole entry): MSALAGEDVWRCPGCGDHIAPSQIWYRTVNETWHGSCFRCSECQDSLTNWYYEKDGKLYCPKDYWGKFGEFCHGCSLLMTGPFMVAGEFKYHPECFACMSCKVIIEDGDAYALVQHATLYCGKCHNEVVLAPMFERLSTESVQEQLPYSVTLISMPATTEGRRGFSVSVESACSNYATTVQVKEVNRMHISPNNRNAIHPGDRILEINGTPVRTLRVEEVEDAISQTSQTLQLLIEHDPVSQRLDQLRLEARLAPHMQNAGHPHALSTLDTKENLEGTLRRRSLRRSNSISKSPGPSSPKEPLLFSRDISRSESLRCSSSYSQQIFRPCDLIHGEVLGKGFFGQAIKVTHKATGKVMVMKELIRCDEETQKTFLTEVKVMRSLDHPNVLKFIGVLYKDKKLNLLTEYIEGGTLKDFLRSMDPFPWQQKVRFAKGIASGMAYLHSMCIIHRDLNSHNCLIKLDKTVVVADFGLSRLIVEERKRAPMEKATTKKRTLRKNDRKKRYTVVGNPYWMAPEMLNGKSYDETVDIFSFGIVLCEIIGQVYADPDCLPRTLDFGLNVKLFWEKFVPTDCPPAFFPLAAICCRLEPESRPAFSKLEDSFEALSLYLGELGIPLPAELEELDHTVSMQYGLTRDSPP
T14 sequence (P51955 whole entry): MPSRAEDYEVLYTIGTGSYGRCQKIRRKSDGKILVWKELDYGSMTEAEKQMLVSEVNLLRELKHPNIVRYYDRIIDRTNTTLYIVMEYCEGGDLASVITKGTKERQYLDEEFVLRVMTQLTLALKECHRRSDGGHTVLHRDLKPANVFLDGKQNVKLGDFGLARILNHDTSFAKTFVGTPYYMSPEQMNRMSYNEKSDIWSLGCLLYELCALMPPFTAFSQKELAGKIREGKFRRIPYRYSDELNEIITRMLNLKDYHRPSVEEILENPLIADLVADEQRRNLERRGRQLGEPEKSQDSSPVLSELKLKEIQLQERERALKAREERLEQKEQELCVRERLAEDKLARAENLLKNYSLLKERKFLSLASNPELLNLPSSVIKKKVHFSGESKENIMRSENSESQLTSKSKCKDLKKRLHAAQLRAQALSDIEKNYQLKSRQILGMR

In the case of `Nc1ccc(N=Nc2ccccc2)c(N)n1` [phenazopyridine, 2,6-diamino-3-(phenylazo)pyridine], the kinase inhibition [1] is given as 95, the Concentration [2] is given as 16.7 µM and the kinase inhibition [3] is given as 100. It also gave a kinase inhibition [4] of 95, a kinase inhibition [5] of 92 and a kinase inhibition [6] of 89. The kinase inhibition [7] was 97, the kinase inhibition [8] was 74 and the kinase inhibition ([9]; CHEK1, 10 µM) was 100. For the same compound, the remaining binding at 10 µM ([9]; CHK1, read-out: Kinome scan (% of control at 10 µM)) was 100%, the kinase inhibition [10] was 42 and the kinase inhibition [11] was 97. It also gave a kinase inhibition [12] of 100, a kinase inhibition [13] of 100 and a kinase inhibition [14] of 98. It also gave a kinase inhibition [15] of 81, a kinase inhibition [16] of 72 and a kinase inhibition [17] of 100. For the same compound, the kinase inhibition [18] was 100, the kinase inhibition [19] was 79 and the kinase inhibition [20] was 95. It also gave a kinase inhibition [21] of 100, a kinase inhibition [22] of 84 and a kinase inhibition [23] of 96. It also gave a kinase inhibition [24] of 92, a kinase inhibition [25] of 88 and a kinase inhibition [26] of 100. For the same compound, the kinase inhibition [27] was 94, the kinase inhibition [28] was 100 and the kinase inhibition [29] was 100. For the same compound, the remaining activity ([30]; KIT(V559D), 10 µM) was 32, the remaining binding at 10 µM ([30]; c-KIT Val559Asp, best mutant, read-out: Kinome scan (% of control at 10 µM)) was 32% and the kinase inhibition [31] was 81. The “remaining binding (% of control)” value [32] was 90, the kinase inhibition [33] was 100 and the kinase inhibition [34] was 100. It also gave a kinase inhibition [35] of 62, a kinase inhibition [36] of 100 and a kinase inhibition [37] of 80. It also gave a kinase inhibition [38] of 79, a kinase inhibition [39] of 100 and a kinase inhibition [40] of 100.
